ChEMBL document CHEMBL4033722, “Carboxylated aurone derivatives as potent inhibitors of xanthine oxidase” (Bioorg Med Chem, 2017)

How the values were obtained:
[1] = target: T1, Xanthine dehydrogenase/oxidase (Bos taurus, UniProt P80457); experiment: Inhibition of bovine milk xanthine-oxidase using xanthine as substrate after 5 mins by spectrophotometric method
[2] = target: T1, Xanthine dehydrogenase/oxidase; experiment: Mixed-type inhibition of bovine milk xanthine oxidase assessed as enzyme-substrate-inhibitor complex using varying levels of xanthine as substrate by Line-weaver burk plot analysis
[3] = target: T1, Xanthine dehydrogenase/oxidase; experiment: Mixed-type inhibition of bovine milk xanthine oxidase assessed as enzyme-inhibitor complex using varying levels of xanthine as substrate by Line-weaver burk plot analysis
[4] = target: T1, Xanthine dehydrogenase/oxidase; experiment: Inhibition of bovine milk xanthine-oxidase up to 10 uM using xanthine as substrate after 5 mins by spectrophotometric method; details: cattle

T1 sequence (P80457 whole entry): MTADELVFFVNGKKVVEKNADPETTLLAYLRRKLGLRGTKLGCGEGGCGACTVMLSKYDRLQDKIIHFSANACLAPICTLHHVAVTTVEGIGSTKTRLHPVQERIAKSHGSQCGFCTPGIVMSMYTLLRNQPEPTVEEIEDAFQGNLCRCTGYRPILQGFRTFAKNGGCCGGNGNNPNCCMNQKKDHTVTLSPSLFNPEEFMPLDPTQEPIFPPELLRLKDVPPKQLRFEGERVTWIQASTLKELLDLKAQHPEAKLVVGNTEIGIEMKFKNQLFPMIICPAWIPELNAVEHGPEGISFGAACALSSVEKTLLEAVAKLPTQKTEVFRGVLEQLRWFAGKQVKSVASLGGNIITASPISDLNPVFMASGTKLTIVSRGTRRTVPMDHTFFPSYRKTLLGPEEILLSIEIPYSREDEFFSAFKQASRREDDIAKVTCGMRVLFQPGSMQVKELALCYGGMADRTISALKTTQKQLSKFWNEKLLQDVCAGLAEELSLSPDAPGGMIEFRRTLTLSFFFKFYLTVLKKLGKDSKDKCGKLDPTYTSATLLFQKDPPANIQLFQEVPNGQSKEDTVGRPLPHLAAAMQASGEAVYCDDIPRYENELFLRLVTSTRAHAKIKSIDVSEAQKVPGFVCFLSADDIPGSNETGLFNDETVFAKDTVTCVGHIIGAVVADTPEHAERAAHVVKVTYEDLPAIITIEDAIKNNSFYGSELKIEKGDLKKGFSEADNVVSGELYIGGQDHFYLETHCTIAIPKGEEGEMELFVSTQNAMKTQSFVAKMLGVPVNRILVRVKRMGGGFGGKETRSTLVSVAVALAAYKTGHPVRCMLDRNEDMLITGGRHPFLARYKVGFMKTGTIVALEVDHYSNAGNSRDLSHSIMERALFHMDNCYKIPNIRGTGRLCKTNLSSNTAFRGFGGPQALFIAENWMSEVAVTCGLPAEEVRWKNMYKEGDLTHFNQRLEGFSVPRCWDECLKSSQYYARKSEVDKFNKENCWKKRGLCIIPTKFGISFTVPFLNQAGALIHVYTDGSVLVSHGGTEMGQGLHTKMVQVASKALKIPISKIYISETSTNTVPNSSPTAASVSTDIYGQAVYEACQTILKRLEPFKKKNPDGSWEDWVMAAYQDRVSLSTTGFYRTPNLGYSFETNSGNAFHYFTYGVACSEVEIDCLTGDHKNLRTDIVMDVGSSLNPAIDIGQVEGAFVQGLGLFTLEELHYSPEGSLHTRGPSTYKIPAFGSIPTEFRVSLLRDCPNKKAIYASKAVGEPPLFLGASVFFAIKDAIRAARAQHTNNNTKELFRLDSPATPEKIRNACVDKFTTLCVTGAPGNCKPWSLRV

IC50 [1] [nM] | Structure (SMILES) | further results
1270 | COc1ccc(/C=C2\Oc3cc(OCC(=O)O)ccc3C2=O)c(OC)c1 | Ki [2]: 34.3 nM; Ki [3]: 2.9 nM
4470 | O=C(O)COc1ccc2c(c1)O/C(=C\c1ccccc1)C2=O | 
1300 | COc1ccccc1/C=C1\Oc2cc(OCC(=O)O)ccc2C1=O | 
3840 | O=C(O)COc1ccc2c(c1)O/C(=C\c1ccccc1C(=O)O)C2=O | 
1230 | O=C(O)COc1ccc2c(c1)O/C(=C\c1ccccc1Cl)C2=O | 
150 | O=C(O)COc1ccc2c(c1)O/C(=C\c1ccc(C(=O)O)cc1)C2=O | 
1570 | COc1ccc(/C=C2\Oc3cc(OCC(=O)O)ccc3C2=O)cc1 | 

Further lines, the molecule ahead of its results:

Structure (SMILES) | IC50 [1] [nM] | further results
O=C(O)c1ccc(/C=C2\Oc3cc(OCc4cccc5ccccc45)ccc3C2=O)cc1 | 69 | 
O=C(O)c1ccc(/C=C2\Oc3cc(O)ccc3C2=O)cc1 | 68 | 
COC(=O)COc1ccc2c(c1)O/C(=C\c1ccccc1)C2=O |  | inhibition (INH) [4]: Not Active
C=C(C)COc1ccc2c(c1)O/C(=C\c1ccc(C(=O)O)cc1)C2=O | 46 | Ki [2]: 1200 nM; inhibition (INH) ([1]; cattle, 5 min): Dose-dependent effect; Ki [3]: 128 nM
Cc1ccc(C)c(COc2ccc3c(c2)O/C(=C\c2ccc(C(=O)O)cc2)C3=O)c1 | 62 | 
COc1ccc2c(c1)O/C(=C\c1ccc(C(=O)O)cc1)C2=O | 80 | 
CC(Oc1ccc2c(c1)O/C(=C\c1ccccc1Cl)C2=O)C(=O)O (stereo unspecified) |  | inhibition (INH) [4]: Not Active
O=C(O)c1ccc(/C=C2\Oc3cc(OCc4ccccc4)ccc3C2=O)cc1 | 61 | 
O=C1/C(=C/c2ccc(O)c(O)c2)Oc2cc(O)ccc21 [SULFURETIN] | 3100 | 
